Experimental data: PMC8213057, “Targeting ALK2: An Open Science Approach to Developing Therapeutics for the Treatment of Diffuse Intrinsic Pontine Glioma” (Journal of Medicinal Chemistry, 2020)

How the values were obtained:
[1] = target: BLK (Homo sapiens, UniProt P51451); assay: biochemical; conditions: read-out: % enzyme activity, 1 μM; Run 1, Run 2
[2] = target: LYN (Homo sapiens, UniProt P07948); assay: biochemical; conditions: read-out: % enzyme activity, 1 μM; Run 1, Run 2
[3] = target: CAMKK2 (Homo sapiens, UniProt Q96RR4); assay: biochemical; conditions: read-out: % enzyme activity, 1 μM; Run 1, Run 2
Sequence of CAMKK2 (Q96RR4 whole entry): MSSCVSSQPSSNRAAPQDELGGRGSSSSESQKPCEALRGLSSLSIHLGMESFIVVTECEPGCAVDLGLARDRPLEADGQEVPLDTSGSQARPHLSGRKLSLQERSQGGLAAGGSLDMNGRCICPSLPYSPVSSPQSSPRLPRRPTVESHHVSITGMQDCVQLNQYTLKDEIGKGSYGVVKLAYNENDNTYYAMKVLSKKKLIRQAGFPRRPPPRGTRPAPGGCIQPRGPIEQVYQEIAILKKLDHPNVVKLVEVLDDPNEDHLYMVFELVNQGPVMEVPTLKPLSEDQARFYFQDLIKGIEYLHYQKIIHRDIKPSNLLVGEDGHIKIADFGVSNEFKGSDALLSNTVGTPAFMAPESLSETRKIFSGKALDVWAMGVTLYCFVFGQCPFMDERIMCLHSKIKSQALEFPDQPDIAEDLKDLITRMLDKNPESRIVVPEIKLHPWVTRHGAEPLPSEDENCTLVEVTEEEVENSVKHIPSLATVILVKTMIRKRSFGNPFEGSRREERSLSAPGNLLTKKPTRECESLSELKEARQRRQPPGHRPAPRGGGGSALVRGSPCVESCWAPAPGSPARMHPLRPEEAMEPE

[4] = target: T1, MEKK6 (Homo sapiens, UniProt O95382); conditions: 1 μM; Run 1, Run 2
T1 sequence (O95382 1-1288): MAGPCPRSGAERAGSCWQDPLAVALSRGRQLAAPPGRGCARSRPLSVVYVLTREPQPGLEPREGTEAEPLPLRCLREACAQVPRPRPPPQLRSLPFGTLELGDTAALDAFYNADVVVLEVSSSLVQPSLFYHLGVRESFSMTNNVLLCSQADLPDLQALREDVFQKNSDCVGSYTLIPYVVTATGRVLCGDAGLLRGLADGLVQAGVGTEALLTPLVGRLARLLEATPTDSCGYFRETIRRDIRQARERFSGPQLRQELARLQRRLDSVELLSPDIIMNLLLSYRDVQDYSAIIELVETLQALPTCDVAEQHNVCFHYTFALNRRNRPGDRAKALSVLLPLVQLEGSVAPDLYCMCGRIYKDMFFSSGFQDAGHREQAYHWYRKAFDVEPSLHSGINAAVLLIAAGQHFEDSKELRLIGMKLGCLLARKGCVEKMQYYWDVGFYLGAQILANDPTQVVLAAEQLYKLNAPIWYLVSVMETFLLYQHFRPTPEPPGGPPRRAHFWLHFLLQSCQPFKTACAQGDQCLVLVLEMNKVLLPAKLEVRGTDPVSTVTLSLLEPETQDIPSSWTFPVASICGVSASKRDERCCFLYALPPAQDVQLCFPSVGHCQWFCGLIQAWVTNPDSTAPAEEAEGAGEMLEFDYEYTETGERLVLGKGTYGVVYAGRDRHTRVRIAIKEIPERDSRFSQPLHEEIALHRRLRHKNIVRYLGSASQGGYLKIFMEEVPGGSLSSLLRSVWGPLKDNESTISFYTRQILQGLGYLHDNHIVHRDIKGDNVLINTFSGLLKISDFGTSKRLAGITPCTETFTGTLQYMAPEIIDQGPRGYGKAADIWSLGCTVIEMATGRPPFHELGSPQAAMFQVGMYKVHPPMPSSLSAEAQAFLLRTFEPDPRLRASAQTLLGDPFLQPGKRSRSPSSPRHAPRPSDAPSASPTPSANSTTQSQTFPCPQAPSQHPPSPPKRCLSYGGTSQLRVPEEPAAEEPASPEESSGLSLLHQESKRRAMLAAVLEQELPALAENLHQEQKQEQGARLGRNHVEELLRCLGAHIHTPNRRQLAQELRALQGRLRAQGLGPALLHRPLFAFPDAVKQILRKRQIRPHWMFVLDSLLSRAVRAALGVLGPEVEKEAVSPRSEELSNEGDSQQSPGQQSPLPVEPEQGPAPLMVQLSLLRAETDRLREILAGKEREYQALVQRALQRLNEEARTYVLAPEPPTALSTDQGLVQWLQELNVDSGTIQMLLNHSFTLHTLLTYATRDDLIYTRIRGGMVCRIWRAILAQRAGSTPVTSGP

[5] = target: T2, PKG1b (Homo sapiens, UniProt Q13976); conditions: 1 μM; Run 1, Run 2
T2 sequence (Q13976 1-686 isoform Q13976-2): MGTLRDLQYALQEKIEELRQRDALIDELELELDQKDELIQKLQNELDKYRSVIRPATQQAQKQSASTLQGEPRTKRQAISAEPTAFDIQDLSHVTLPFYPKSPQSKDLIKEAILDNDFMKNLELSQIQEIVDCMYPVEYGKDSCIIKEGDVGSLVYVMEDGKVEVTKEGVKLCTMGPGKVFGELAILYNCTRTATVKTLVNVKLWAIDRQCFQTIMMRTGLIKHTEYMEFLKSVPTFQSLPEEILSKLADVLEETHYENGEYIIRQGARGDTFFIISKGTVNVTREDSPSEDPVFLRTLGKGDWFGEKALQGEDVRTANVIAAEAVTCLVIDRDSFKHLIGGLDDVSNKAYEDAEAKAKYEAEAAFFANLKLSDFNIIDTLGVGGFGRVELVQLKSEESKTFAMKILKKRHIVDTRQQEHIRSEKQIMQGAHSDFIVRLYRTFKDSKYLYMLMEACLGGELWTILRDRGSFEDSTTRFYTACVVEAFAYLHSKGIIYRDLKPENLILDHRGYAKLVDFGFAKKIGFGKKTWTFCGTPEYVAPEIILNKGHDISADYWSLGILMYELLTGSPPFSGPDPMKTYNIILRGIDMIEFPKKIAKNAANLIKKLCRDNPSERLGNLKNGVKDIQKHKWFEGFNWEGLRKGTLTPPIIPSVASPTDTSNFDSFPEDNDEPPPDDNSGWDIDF

[6] = target: TTBK2 (Homo sapiens, UniProt Q6IQ55); assay: biochemical; conditions: read-out: % enzyme activity, 1 μM; Run 1, Run 2
Sequence of TTBK2 (Q6IQ55 whole entry): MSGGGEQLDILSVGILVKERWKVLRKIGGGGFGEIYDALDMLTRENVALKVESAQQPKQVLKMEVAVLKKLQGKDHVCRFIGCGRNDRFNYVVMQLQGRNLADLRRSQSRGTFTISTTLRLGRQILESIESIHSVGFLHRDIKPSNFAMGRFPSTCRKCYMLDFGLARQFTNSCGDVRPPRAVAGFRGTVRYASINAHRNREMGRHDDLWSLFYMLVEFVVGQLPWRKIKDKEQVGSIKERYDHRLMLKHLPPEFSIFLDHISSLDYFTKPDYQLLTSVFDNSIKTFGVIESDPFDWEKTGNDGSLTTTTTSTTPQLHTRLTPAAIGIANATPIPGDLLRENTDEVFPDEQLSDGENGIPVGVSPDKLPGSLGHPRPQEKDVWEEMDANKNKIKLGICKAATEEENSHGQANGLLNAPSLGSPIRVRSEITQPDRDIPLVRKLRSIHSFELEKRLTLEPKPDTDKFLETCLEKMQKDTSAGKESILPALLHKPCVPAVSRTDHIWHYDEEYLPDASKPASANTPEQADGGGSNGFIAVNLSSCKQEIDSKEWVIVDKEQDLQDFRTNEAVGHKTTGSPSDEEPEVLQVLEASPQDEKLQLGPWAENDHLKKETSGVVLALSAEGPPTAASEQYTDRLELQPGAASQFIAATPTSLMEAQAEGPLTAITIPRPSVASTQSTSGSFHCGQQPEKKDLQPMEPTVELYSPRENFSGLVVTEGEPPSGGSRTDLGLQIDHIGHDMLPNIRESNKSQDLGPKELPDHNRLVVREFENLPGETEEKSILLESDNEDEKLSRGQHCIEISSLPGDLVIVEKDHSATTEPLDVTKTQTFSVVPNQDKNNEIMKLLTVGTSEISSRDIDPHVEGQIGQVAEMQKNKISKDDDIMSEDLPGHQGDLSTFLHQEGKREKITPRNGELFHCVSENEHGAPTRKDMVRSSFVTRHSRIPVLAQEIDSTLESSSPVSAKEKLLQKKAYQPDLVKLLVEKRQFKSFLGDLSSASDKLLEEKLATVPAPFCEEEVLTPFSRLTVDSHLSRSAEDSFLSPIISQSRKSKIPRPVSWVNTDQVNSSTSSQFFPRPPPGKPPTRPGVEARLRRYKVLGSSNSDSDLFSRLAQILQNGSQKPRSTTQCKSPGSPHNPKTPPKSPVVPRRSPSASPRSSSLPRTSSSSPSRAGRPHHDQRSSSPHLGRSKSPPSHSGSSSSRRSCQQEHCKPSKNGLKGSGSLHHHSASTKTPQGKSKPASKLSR

[7] = target: CYP3A4-Testosterone
[8] = target: T3, PKCepsilon (Homo sapiens, UniProt Q02156); assay: biochemical; conditions: read-out: % enzyme activity, 1 μM; Run 1, Run 2
T3 sequence (Q02156 1-737): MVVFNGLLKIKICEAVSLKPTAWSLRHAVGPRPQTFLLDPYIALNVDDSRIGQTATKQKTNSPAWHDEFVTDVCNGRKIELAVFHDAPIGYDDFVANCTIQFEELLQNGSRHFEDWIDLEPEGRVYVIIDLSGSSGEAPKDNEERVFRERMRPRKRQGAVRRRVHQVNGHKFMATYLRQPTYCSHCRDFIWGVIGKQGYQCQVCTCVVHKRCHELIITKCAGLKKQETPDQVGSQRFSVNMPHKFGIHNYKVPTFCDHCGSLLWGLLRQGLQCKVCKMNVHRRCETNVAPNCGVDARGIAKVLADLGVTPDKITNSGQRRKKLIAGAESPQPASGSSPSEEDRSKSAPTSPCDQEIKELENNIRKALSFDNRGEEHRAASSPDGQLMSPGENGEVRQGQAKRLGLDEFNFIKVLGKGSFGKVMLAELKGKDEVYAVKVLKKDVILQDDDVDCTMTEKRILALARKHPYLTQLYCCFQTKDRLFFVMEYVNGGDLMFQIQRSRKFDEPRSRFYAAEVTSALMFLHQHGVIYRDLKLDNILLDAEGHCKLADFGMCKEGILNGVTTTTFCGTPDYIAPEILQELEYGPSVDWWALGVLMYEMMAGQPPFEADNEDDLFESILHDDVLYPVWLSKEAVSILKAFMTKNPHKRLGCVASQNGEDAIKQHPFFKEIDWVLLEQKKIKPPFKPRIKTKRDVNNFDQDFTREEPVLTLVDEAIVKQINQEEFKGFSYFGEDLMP

Sequence of BLK (P51451 whole entry): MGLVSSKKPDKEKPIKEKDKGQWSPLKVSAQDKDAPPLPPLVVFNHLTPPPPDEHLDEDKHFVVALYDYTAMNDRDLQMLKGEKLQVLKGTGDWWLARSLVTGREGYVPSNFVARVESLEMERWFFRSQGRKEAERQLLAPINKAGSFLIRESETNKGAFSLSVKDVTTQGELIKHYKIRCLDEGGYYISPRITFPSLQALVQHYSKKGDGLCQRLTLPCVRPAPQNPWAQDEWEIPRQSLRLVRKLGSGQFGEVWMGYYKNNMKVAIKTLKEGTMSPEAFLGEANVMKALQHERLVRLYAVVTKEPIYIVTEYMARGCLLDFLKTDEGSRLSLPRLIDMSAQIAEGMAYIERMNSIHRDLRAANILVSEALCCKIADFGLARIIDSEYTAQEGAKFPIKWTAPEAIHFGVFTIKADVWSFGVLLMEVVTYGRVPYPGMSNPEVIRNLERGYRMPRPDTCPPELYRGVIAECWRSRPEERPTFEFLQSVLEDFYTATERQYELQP
Sequence of LYN (P07948 whole entry): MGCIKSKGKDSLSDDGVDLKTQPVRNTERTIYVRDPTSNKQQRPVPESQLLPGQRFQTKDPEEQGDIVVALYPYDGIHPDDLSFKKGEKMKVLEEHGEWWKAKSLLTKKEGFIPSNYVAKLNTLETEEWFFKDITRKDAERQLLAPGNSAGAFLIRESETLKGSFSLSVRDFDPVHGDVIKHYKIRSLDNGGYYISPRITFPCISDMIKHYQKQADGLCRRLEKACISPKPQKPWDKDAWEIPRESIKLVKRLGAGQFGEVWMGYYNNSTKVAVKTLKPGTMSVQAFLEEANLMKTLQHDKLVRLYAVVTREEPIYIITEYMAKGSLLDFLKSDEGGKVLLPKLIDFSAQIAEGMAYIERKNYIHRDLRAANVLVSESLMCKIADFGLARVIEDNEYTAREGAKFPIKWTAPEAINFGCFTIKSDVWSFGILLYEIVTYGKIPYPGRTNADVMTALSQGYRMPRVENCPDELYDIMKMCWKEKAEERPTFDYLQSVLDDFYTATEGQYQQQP

Row | SMILES | remaining activity at 1 µM [1] [%] | remaining activity at 1 µM [2] [%] | remaining activity at 1 µM [3] [%] | % enzyme activity [4] [%] | % enzyme activity [5] [%] | remaining activity at 1 µM [6] [%] | CYP inhibition [7] [µM] | remaining activity at 1 µM [8] [%]
1 | COc1cc(-c2cncc(-c3ccc(N4CCN(C)CC4)cc3)c2C)cc(F)c1C(N)=O [Compound 26a, 2-Fluoro-6-methoxy-4-(4-methyl-5-(4-(4-methylpiperazin-1-yl)phenyl)pyridin-3-yl)benzamide] | 97.2 | 79.9 | 71.7 | 96.75 | 98.83 | 97.1 | > 50 | 99.8
2 | COc1cc(-c2cncc(-c3ccc(N4C[C@@H](C)N(C)[C@@H](C)C4)cc3)c2C)cc(F)c1C(N)=O [Compound 26c, 2-Fluoro-6-methoxy-4-(4-methyl-5-(4-((3R,5S)-3,4,5-trimethylpiperazin-1-yl)phenyl)pyridin-3-yl)benzamide] | 104 | 91 | 76.4 | 95.16 | 96.31 | 97.8 | > 50 | 106
